We go through 9 compounds from ChEMBL document CHEMBL1150249, “Antiglioma action of xanthones from Gentiana kochiana: Mechanistic and structure-activity requirements” (Bioorg Med Chem, 2008).

Data set [1] concerns U-251. Nature of the data set: Antiproliferative activity against human U251 cells assessed as cell number after 48 hrs by crystal violet assay. The data set is classed as functional, cell-based. To be noted: U-251, 48 h.
For data set [2], the system named is C6. The data set can be described thus: Antiproliferative activity against rat C6 cells assessed as cell number after 48 hrs by crystal violet assay. The format is functional, cell-based. To be noted: C6, 48 h.
Data set [3] can be described thus: Inhibition of bovine brain tubulin by microtubule depolymerization assay. More on the design: species or system Bos taurus.
In data set [4] the test system is U-251. The data set can be described thus: Antiproliferative activity against human U251 cells assessed as cell number after 72 hrs by crystal violet assay. The data set is classed as functional, cell-based.
A short description of data set [5]: Antiproliferative activity against Albino Oxford rat peritoneal macrophages assessed as mitochondrial respiration after 48 hrs by MTT assay. To be noted: macrophage. The format is cell-based.
The test system of data set [6] is C6. The data set can be described thus: Induction apoptosis in rat C6 cells assessed as caspase activation at 50 uM after 36 hrs by flow cytometry relative to control. The format is functional. Background: In flow cytometry, cells or beads pass a laser one at a time.
In data set [7] the test system is C6. Nature of the data set: Antiproliferative activity against rat C6 cells assessed as cell number after 24 hrs by crystal violet assay. The data set is classed as functional, cell-based.
Data set [8] can be described thus: Antiproliferative activity against Albino Oxford rat peritoneal macrophages assessed as cell number after 48 hrs by crystal violet assay. The data set is classed as cell-based. To be noted: macrophage.
Data set [9] deals with U-251. The data set can be described thus: Antiproliferative activity against human U251 cells assessed as cell number after 24 hrs by crystal violet assay. The data set is classed as functional, cell-based.
For data set [10], the system named is U-251. Nature of the data set: Antiproliferative activity against human U251 cells assessed as mitochondrial dehydrogenase activity after 24 hrs by MTT assay. The data set is classed as functional, cell-based. A general note: Tetrazolium assays rely on reduction of a dye to a coloured formazan, in cell work by metabolically active cells.
Data set [11] has as its system C6. Nature of the data set: Antiproliferative activity against rat C6 cells assessed as mitochondrial dehydrogenase activity after 72 hrs by MTT assay. The data set is classed as functional, cell-based.
The subject of data set [12] is C6. The data set can be described thus: Induction of mitochondrial membrane potential depolarization in rat C6 cells assessed as increase in green to red fluorescence ratio at 50 uM after 24 hrs by flow cytometry. The data set is classed as functional, cell-based.
The test system of data set [13] is C6. The data set can be described thus: Cell cycle arrest in rat C6 cells assessed as accumulation at S phase at 50 uM after 24 hrs by flow cytometry relative to control. The format is functional.
Data set [14] deals with C6. The data set can be described thus: Cell cycle arrest in rat C6 cells assessed as accumulation at G0/G1 phase at 50 uM after 24 hrs by flow cytometry relative to control. The data set is classed as functional.
Data set [15] is described as follows: Antiproliferative activity against Albino Oxford rat primary astrocytes assessed as change in morphology by bright field microscopy. The format is cell-based. To be noted: astrocyte.
Data set [16] deals with U-251. Nature of the data set: Antiproliferative activity against human U251 cells assessed as mitochondrial dehydrogenase activity after 72 hrs by MTT assay. The format is functional, cell-based.
Data set [17] deals with C6. The data set can be described thus: Induction apoptosis in rat C6 cells at 50 uM after 36 hrs by flow cytometry relative to control. The format is functional.
Data set [18] can be described thus: Antiproliferative activity against Albino Oxford rat primary astrocytes assessed as mitochondrial respiration after 48 hrs by MTT assay. The data set is classed as cell-based. To be noted: astrocyte.
Data set [19] can be described thus: Antiproliferative activity against Albino Oxford rat primary astrocytes assessed as cell number after 48 hrs by crystal violet assay. The format is cell-based. To be noted: astrocyte.
In data set [20] the test system is C6. The data set can be described thus: Cell cycle arrest in rat C6 cells assessed as accumulation at G2/M phase at 50 uM after 24 hrs by flow cytometry relative to control. The data set is classed as functional.
In data set [21] the test system is C6. Nature of the data set: Induction of apoptosis in rat C6 cells assessed as change in morphology at 50 uM after 48 hrs by bright field microscopy. The format is functional, cell-based.
Data set [22] concerns C6. Nature of the data set: Induction necrosis in rat C6 cells at 50 uM after 36 hrs by flow cytometry relative to control. The format is functional.
The subject of data set [23] is C6. The data set can be described thus: Induction of reactive oxygen species production in rat C6 cells at 50 uM after 36 hrs by flow cytometry. The format is functional, cell-based.
In data set [24] the test system is C6. Nature of the data set: Antiproliferative activity against rat C6 cells assessed as mitochondrial dehydrogenase activity after 24 hrs by MTT assay. The format is functional, cell-based.
Data set [25] relates to C6. The data set can be described thus: Antiproliferative activity against rat C6 cells assessed as cell number after 72 hrs by crystal violet assay. The data set is classed as functional, cell-based.
The test system of data set [26] is C6. The data set can be described thus: Antiproliferative activity against rat C6 cells assessed as cell number after 48 hrs by crystal violet assay in presence of N-acetyl-cysteine. The format is functional, cell-based.
The test system of data set [27] is C6. The data set can be described thus: Antiproliferative activity against rat C6 cells assessed as caspase activation at 50 uM after 36 hrs by flow cytometry in presence of N-acetyl-cysteine. The format is functional, cell-based.

Molecules are shown by their SMILES. pIC50: −log10 of the molar value. Activity calls are given as the source filed them. The calls are words filed in the database; no cut-off is given here.

What is called pIC50 is −log10 of the IC50, conventionally taken in molar units. Consider `COc1cc(O[C@@H]2O[C@H](CO)[C@@H](O)[C@H](O)[C@H]2O)c2c(=O)c3c(OC)c(O)ccc3oc2c1`, for which the pIC50 in data set [1] and in data set [2] was less than 4.00 each time.
Turning to `COc1cc(O)c2c(=O)c3c(O)ccc(O)c3oc2c1` [BELLIDIFOLIN], the pIC50 in data set [1] is less than 4.00; in data set [2] it was less than 4.00; in [3], less than 4.30.
Take `COc1cc(O)c2c(=O)c3c(OC)c(OC)ccc3oc2c1` [DECUSSATIN]: the pIC50 in [1] and in [2] was less than 4.00 in each case.
For the compound `O=c1c2c(O)cc(O)cc2oc2c(O)ccc(O)c12` [DEMETHYLBELLIDIFOLIN], the figures for the pIC50 in [1], in data set [2] and in data set [3] were less than 4.00, less than 4.00 and less than 4.30, respectively.
Consider `COc1cc(O[C@@H]2O[C@H](CO[C@@H]3OC[C@@H](O)[C@H](O)[C@H]3O)[C@@H](O)[C@H](O)[C@H]2O)c2c(=O)c3c(OC)c(O)ccc3oc2c1` [GENTIABAVAROSIDE], for which the pIC50 in [1] and in [2] was less than 4.00 in each case.
For the compound `COc1cc(O)c2c(=O)c3c(O)c(O)ccc3oc2c1` [GENTIAKOCHIANIN], the result in data set [4], in data set [7], in data set [9], in [10], in [11] and in [12] was Active. For the same compound, the outcome in data set [16], in data set [21], in [23], in data set [24] and in data set [25] was Active. Also, the Activity entry was “Non-toxic” in data set [5]; 19.7% in data set [6]; “Non-toxic” in data set [8]; 10.6% in [13]; 33.7% in data set [14]; “Non-toxic” in data set [15]. Further, the Activity in data set [17] was 24.2%; in [18], “Non-toxic”; in data set [19], “Non-toxic”; in [20] it was 52.5%; in [22], 5.9%. Moreover, the pIC50 is 4.56 in data set [1], 4.50 in data set [2] and 4.74 in [3].
Take `COc1cc(O)c2c(=O)c3c(OC)c(O)ccc3oc2c1` [GETIACAULEIN]: the result in data set [4], in data set [7], in data set [9], in data set [10], in data set [11] and in [12] was Active. In addition, the outcome in data set [26], in [16], in data set [27], in data set [23], in data set [24] and in data set [25] was Active. Further, the Activity result in data set [5] was “Non-toxic”; in [6], 6%; in data set [8], “Non-toxic”; in data set [13], 5.8%; in [14], 73.2%; in data set [15], “Non-toxic”. Besides, the Activity in data set [17] was 4.5%; in [18] it was “Non-toxic”; in data set [19] it was “Non-toxic”; in [20], 18.8%; in data set [22] it was 5.5%. Further, the pIC50 was 4.27 in data set [1], 4.25 in data set [2] and less than 4.30 in data set [3].
`COc1cc(O[C@@H]2O[C@H](CO[C@@H]3OC[C@@H](O)[C@H](O)[C@H]3O)[C@@H](O)[C@H](O)[C@H]2O)c2c(=O)c3c(O)c(O)ccc3oc2c1` [ISOGENTIAKOCHIANOSIDE]: the pIC50 in [1] and in data set [2] was less than 4.00 in each case.
In [3], `CC(=O)O[C@H]1C(=O)[C@@]2(C)[C@H]([C@H](OC(=O)c3ccccc3)[C@]3(O)C[C@H](OC(=O)[C@H](O)[C@@H](NC(=O)c4ccccc4)c4ccccc4)C(C)=C1C3(C)C)[C@]1(OC(C)=O)CO[C@@H]1C[C@@H]2O` [PACLITAXEL] had a pIC50 of 5.62.
